Data from patent US20070197590A1, “SUBSTITUTED DIPIPERIDINE CCR2 ANTAGONISTS” (priority 2006, published 2007).

What was measured:
[1] = test system: MCP-1 induced calcium ion influx in THP-1 cells; assay: MCP-1 Induced Calcium Mobilization in THP-1 Cells; type: cell-based; conditions: Homo sapiens; for IC50: THP-1, THP-1 cells, 0.2 μM MCP-1, FLIPR, read-out: Inhibition of MCP-1 Induced Calcium Ion Influx IC50
Method: THP-1 cells were plated at a density of 8×10^5 cells/mL (100 μL/well) into poly-D lysine coated clear bottom, black 96 well plates. The cells were loaded with 5 μM fluo-3 for 45 minutes. The fluo-3 washed off and cells were incubated with varying concentrations of test compound for 15 minutes. The change in calcium ion concentration upon addition of 0.2 μM MCP-1 was determined using FLIPR and compared to vehicle.
Table 2 lists IC50 values for inhibition of MCP-1 induced influx of calcium ions.

[2] = test system: MCP-1 induced chemotaxis of THP-1 cells; assay: MCP-1 Induced Chemotaxis in THP-1 Cells; type: cell-based; conditions: Homo sapiens, MCP-1 0.01 μg/mL, 3 hours at 37° C., read-out: Inhibition of MCP-1 Induced Chemotaxis IC50
Method: MCP-1 induced chemotaxis was run in a 24-well chemotaxis chamber. MCP-1 (0.01 μg/mL) was added to the lower chamber and 100 μL of THP-1 cells (1×10^7 cell/mL) was added to the top chamber. Varying concentrations of test compound were added to the top and bottom chambers. Cells were allowed to chemotax for 3 hours at 37° C. and 5% CO2. An aliquot of the cells that had migrated to the bottom chamber was taken and counted then compared to vehicle.
Table 3 lists IC50 values for inhibition of MCP-1 induced chemotaxis.

[3] = biological target: T1, CCR2 (Homo sapiens, UniProt P41597); assay: MCP-1 Receptor Binding Assay in THP-1 Cells; conditions: for IC50: THP-1 cells, 0.5 nM 125I labeled MCP-1, 2 hours at 30° C., read-out: Inhibition of MCP-1 Binding IC50
T1 construct: host or cells: THP-1 cells
T1 sequence (P41597 1-360 isoform P41597-2): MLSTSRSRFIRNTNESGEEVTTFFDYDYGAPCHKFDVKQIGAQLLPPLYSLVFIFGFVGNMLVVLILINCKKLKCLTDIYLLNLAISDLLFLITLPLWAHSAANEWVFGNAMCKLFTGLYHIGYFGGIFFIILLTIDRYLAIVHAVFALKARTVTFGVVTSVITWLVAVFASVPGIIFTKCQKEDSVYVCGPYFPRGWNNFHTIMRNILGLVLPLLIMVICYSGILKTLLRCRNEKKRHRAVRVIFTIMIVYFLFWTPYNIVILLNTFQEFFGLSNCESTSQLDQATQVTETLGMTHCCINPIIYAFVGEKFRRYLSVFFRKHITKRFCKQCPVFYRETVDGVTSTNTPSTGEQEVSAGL
How it was run: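 Whole THP-1 cells incubated 2 h at 30° C with 0.5 nM 125I-MCP-1 and varying compound concentrations; bound radioactivity harvested on filters and counted by scintillation. Nonspecific binding with 1 μM cold MCP-1; IC50 for inhibition of binding versus vehicle.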

| Compound | IC50 [1] [nM] | IC50 [2] [nM] | IC50 [3] [nM] | inhibition at 25 µM ([3]; test concentration of 25 μM, given where an IC50 value was not obtained, read-out: Inhibition of MCP-1 Binding, percent inhibition) [%] | inhibition at 25 µM ([1]; THP-1, test concentration of 25 μM, given where an IC50 value was not obtained, read-out: Inhibition of MCP-1 Induced Calcium Ion Influx, percent inhibition) [%] |
| --- | --- | --- | --- | --- | --- |
| O=C(Nc1ccc(Cl)c(Cl)c1)N1CCC(C(O)CN2CCC(c3c[nH]c4ccccc34)CC2)CC1 (stereo not shown) [Compound 4, 4-{1-hydroxy-2-[4-(1H-indol-3-yl)-piperidin-1-yl]-ethyl}-piperidine-1-carboxylic acid (3,4-dichloro-phenyl)-amide] | 20 | 4 | 30 |  |  |
| O=C(Nc1cc(F)cc(F)c1)N1CCC(C(O)CN2CCC(c3c[nH]c4ccccc34)CC2)CC1 (stereo not shown) [Compound 5, 4-{1-hydroxy-2-[4-(1H-indol-3-yl)-piperidin-1-yl]-ethyl}-piperidine-1-carboxylic acid (3,5-difluoro-phenyl)-amide] | 80 | 120 | 160 |  |  |
| O=C(/C=C/c1ccc(Cl)c(Cl)c1)N1CCC(C(O)CN2CCC(c3c[nH]c4ccccc34)CC2)CC1 (stereo not shown) [Compound 6] | 7 | 20 | 40 |  |  |
| OC(CN1CCC(c2c[nH]c3ccccc23)CC1)C1CCN(C(=S)Nc2cccc(Br)c2)CC1 (stereo not shown) [Compound 9, 4-{1-hydroxy-2-[4-(1H-indol-3-yl)-piperidin-1-yl]-ethyl}-piperidine-1-carbothioic acid (3-bromo-phenyl)-amide] | 120 | 20 | 50 |  |  |
| N=C(NC(=O)c1cc(F)cc(F)c1)N1CCC(C(O)CN2CCC(c3c[nH]c4ccccc34)CC2)CC1 (stereo not shown) [Compound 10, 3,5-difluoro-N-[(4-{1-hydroxy-2-[4-(1H-indol-3-yl)-piperidin-1-yl]-ethyl}-piperidin-1-yl)-imino-methyl]-benzamide] | 400 | 270 | 150 |  |  |
| Cc1cccc(/C=C/C(=O)N2CCC(C(O)CN3CCC(c4c[nH]c5ccccc45)CC3)CC2)c1 (stereo not shown) [Compound 11] | 350 | 190 | 10 |  |  |
| OC(CN1CCC(c2c[nH]c3ccc(N4CCOCC4)cc23)CC1)C1(O)CCN(C(=S)Nc2cc(Cl)cc(Cl)c2)CC1 (stereo not shown) [Compound 182, 4-hydroxy-4-{1-hydroxy-2-[4-(5-morpholin-4-yl-1H-indol-3-yl)-piperidin-1-yl]-ethyl}-piperidine-1-carbothioic acid (3,5-dichloro-phenyl)-amide] | 5400 |  | 4900 |  |  |
| CC(=O)Nc1ccc2[nH]cc(C3CCN(CC(O)C4CCN(C(=O)OCc5ccccc5)CC4)CC3)c2c1 (stereo not shown) [Compound 184, 4-{2-[4-(5-acetylamino-1H-indol-3-yl)-piperidin-1-yl]-1-hydroxy-ethyl}-piperidine-1-carboxylic acid benzyl ester] |  |  |  | 61 | 13 |

Now from value to compound, other results behind:

| IC50 [1] [nM] | IC50 [2] [nM] | IC50 [3] [nM] | inhibition at 25 µM ([3]; test concentration of 25 μM, given where an IC50 value was not obtained, read-out: Inhibition of MCP-1 Binding, percent inhibition) [%] | Compound | inhibition at 25 µM ([1]; THP-1, test concentration of 25 μM, given where an IC50 value was not obtained, read-out: Inhibition of MCP-1 Induced Calcium Ion Influx, percent inhibition) [%] |
| --- | --- | --- | --- | --- | --- |
| 70 | 90 | 250 |  | COc1ccc(C2CCN(CC(O)C3(O)CCN(C(=O)/C=C/c4ccc(Cl)c(Cl)c4)CC3)CC2)cc1 (stereo not shown) [Compound 1] |  |
| 7 | 30 | 30 |  | O=C(/C=C/c1cc(F)cc(F)c1)N1CCC(C(O)CN2CCC(c3c[nH]c4ccccc34)CC2)CC1 (stereo not shown) [Compound 7] |  |
| 650 | 7 | 20 |  | COc1ccc(C2CCN(CC(O)C3CCN(C(=O)/C=C/c4cc(F)cc(F)c4)CC3)CC2)cc1 (stereo not shown) [Compound 12] |  |
| 240 | 60 | 10 |  | COc1ccc(C2CCN(CC(O)C3CCN(C(=O)/C=C/c4cc(F)c(F)c(F)c4)CC3)CC2)cc1 (stereo not shown) [Compound 13] |  |
| 3 | 150 | 140 |  | COc1ccc(C2CCN(CC(O)C3CCN(C(=O)/C=C/c4ccc(Cl)c(Cl)c4)CC3)CC2)cc1 (stereo not shown) [Compound 14] |  |
| 110 | 20 | 30 |  | COc1ccc(C2CCN(CC(O)C3CCN(C(=O)Nc4ccc(Cl)c(Cl)c4)CC3)CC2)cc1 (stereo not shown) [Compound 15, 4-{1-hydroxy-2-[4-(4-methoxy-phenyl)-piperidin-1-yl]-ethyl}-piperidine-1-carboxylic acid (3,4-dichloro-phenyl)-amide] |  |
